Test results as given in PubChem BioAssay (NCI).
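Protocol summary: plate cells (96-well), add compound at 5 concentrations, incubate 48 h, interpolate endpoints linearly. GI50: concentration for 50% inhibition of growth. Definition used: TGI = concentration required for complete inhibition of growth.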

Tests used:
Assay in all cases: NCI anticancer screen, dose series, 48 h
[1] = tested on: NCI-H226 lung
[2] = tested on: HOP-92 NSCLC
[3] = tested on: SNB-75 CNS
[4] = tested on: TK-10 renal
[5] = tested on: MDA-MB-435
[6] = tested on: HCT-116 colon
[7] = tested on: RPMI-8226 leukemia
[8] = tested on: OVCAR-4 ovarian
[9] = tested on: PC-3 prostate
[10] = tested on: CCRF-CEM leukemia
[11] = tested on: MCF7 breast
[12] = tested on: SF-539 CNS
[13] = tested on: M14 melanoma
[14] = tested on: UACC-62 melanoma
[15] = tested on: HCT-15 colon
[16] = tested on: SK-MEL-2 melanoma
[17] = tested on: MALME-3M melanoma
[18] = tested on: MDA-MB-231 breast
[19] = tested on: LOX IMVI melanoma
[20] = tested on: MOLT-4 leukemia
[21] = tested on: T-47D breast
[22] = tested on: OVCAR-5 ovarian
[23] = tested on: OVCAR-8 ovarian
[24] = tested on: BT-549 breast
[25] = tested on: SNB-19 CNS
[26] = tested on: ACHN renal
[27] = tested on: DU-145 prostate
[28] = tested on: HS 578T breast
[29] = tested on: SW-620 colon
[30] = tested on: SK-OV-3 ovarian
[31] = tested on: 786-0 renal
[32] = tested on: RXF 393 renal
[33] = tested on: COLO 205 colon
[34] = tested on: SK-MEL-28 melanoma
[35] = tested on: NCI-H522 lung
[36] = tested on: IGROV1 ovarian
[37] = tested on: HCC-2998 colon
[38] = tested on: SF-295 CNS
[39] = tested on: KM12 colon
[40] = tested on: SK-MEL-5 melanoma
[41] = tested on: UACC-257 melanoma
[42] = tested on: HOP-62 NSCLC
[43] = tested on: NCI/ADR-RES ovarian
[44] = tested on: NCI-H460 lung
[45] = tested on: A498 renal
[46] = tested on: CAKI-1 renal
[47] = tested on: U251 CNS
[48] = tested on: UO-31 renal
[49] = tested on: HT29 colon
[50] = tested on: SF-268 CNS
[51] = tested on: OVCAR-3 ovarian
[52] = tested on: SN12C renal
[53] = tested on: NCI-H23 lung
[54] = tested on: A549 NSCLC

## CC(C)(C)c1ccc(S(=O)(=O)Oc2ccc3c4c(c(=O)oc3c2)CCCCC4)cc1
[1]
  GI50: 9.94 µM
  TGI: > 100 µM
[2]
  GI50: 1.22 µM
  TGI: 12.2 µM
[3]
  GI50: 13.3 µM
  TGI: 36.8 µM
[4]
  GI50: 18.1 µM
  TGI: 36.4 µM
[5]
  GI50: 34.6 µM
  TGI: > 100 µM
[6]
  GI50: 7.06 µM
  TGI: > 100 µM
[7]
  GI50: 3.18 µM
  TGI: > 100 µM
[8]
  GI50: 8.13 µM
  TGI: 40.7 µM
[9]
  GI50: 2.22 µM
  TGI: > 100 µM
[10]
  GI50: > 100 µM
  TGI: > 100 µM
[11]
  GI50: 18.2 µM
  TGI: > 100 µM
[12]
  GI50: 24.2 µM
  TGI: > 100 µM
[13]
  GI50: 20.4 µM
  TGI: > 100 µM
[14]
  GI50: 3.19 µM
  TGI: 33.6 µM
[15]
  GI50: 7.92 µM
  TGI: > 100 µM
[16]
  GI50: 16.5 µM
  TGI: 55.6 µM
[17]
  GI50: 24.8 µM
  TGI: 76.5 µM
[18]
  GI50: 15.2 µM
  TGI: 49.3 µM
[19]
  GI50: 32.5 µM
  TGI: > 100 µM
[20]
  GI50: > 100 µM
  TGI: > 100 µM
[21]
  GI50: 5.17 µM
  TGI: > 100 µM
[22]
  GI50: 37 µM
  TGI: > 100 µM
[23]
  GI50: 21.8 µM
  TGI: > 100 µM
[24]
  GI50: 17.7 µM
  TGI: > 100 µM
[25]
  GI50: 16.4 µM
  TGI: 52.1 µM
[26]
  GI50: 14.4 µM
  TGI: 34.6 µM
[27]
  GI50: 37.9 µM
  TGI: > 100 µM
[28]
  GI50: 15.2 µM
  TGI: 74.3 µM
[29]
  GI50: 85.6 µM
  TGI: > 100 µM
[30]
  GI50: 19.7 µM
  TGI: 52.2 µM
[31]
  GI50: 25.3 µM
  TGI: > 100 µM
[32]
  GI50: 17.8 µM
  TGI: 63.5 µM
[33]
  GI50: 14.4 µM
  TGI: > 100 µM
[34]
  GI50: 24.1 µM
  TGI: > 100 µM
[35]
  GI50: 19.2 µM
  TGI: > 100 µM
[36]
  GI50: 14.9 µM
  TGI: 48.5 µM
[37]
  GI50: > 100 µM
  TGI: > 100 µM
[38]
  GI50: 20.9 µM
  TGI: > 100 µM
[39]
  GI50: > 100 µM
  TGI: > 100 µM
[40]
  GI50: 5.48 µM
  TGI: 85.4 µM
[41]
  GI50: 7.46 µM
  TGI: > 100 µM
[42]
  GI50: 21.5 µM
  TGI: 46.2 µM
[43]
  GI50: 13.9 µM
  TGI: > 100 µM
[44]
  GI50: 7.3 µM
  TGI: > 100 µM
[45]
  GI50: 6.53 µM
  TGI: 36.3 µM
[46]
  GI50: 10.9 µM
  TGI: 43.5 µM
[47]
  GI50: 12.5 µM
  TGI: 54.4 µM
[48]
  GI50: 12.7 µM
  TGI: 44 µM
[49]
  GI50: 7.95 µM
  TGI: > 100 µM
[50]
  GI50: 39.7 µM
  TGI: > 100 µM
[51]
  GI50: 18.4 µM
  TGI: > 100 µM
[52]
  GI50: 29.3 µM
  TGI: > 100 µM
[53]
  GI50: 13.5 µM
  TGI: > 100 µM
[54]
  GI50: 14.2 µM
  TGI: 39.8 µM
